Here are results for 1 compound from PMC3429506, “Screening for Novel LRRK2 Inhibitors Using a High-Throughput TR-FRET Cellular Assay for LRRK2 Ser935 Phosphorylation” (PLoS ONE, 2012).

For experiment [1], the target named is T1, LRRK2 G2019S (Homo sapiens, UniProt Q5S007, G2019S). Put plainly: In vitro biochemical LRRK2 TR-FRET activity assay. The settings on record: LRRK2 G2019S, ATP 134 µM (Km,app), LRRKtide substrate, three independent experiments; read-out: Biochemical LRRK2 assay IC50 +/- SD.
In another experiment the target is T2, GFP-LRRK2 G2019S (Homo sapiens, UniProt Q5S007, G2019S).
T2 construct: expressed in transfected cells
Put plainly: Immunoprecipitation/Western analysis of LRRK2 phosphorylation at Ser910, Ser935, Ser955, Ser973 in HEK293 T-REx GFP-LRRK2 G2019S cells. It is filed as cell-based. The conditions noted are these: 20 µM, 90 min, HEK293 GFP-LRRK2 G2019S, Figure 6.

The target in a further experiment is T3, LRRK2 A2016T/G2019S (Homo sapiens, UniProt Q5S007, A2016T/G2019S).
T3 construct: expressed in transfected cells
Put plainly: Immunoprecipitation/Western analysis of LRRK2 phosphorylation in T-REx HEK293 cells expressing inhibitor desensitizing mutant. Type of experiment: cell-based. The settings on record: 20 µM, Figure 6 IRM. Here is the method:
Immunoblot analysis: BacMam LRRK2-GFP transduced U-2 OS or SH-SY5Y cells (10^7 cells) were left untreated or treated with 3 µM LRRK2-IN-I for 90 min. For lysate preparation, the cells were washed once with ice-cold PBS and lysed by addition of ice-cold lysis buffer (20 mM Tris-HCl, pH 7.4, 1% NP-40, 5 mM EDTA, 5 mM NaF, 150 mM NaCl, and 1∶100 of protease and phosphatase inhibitor cocktails). The lysate was cleared of debris by centrifugation. Equal amount of total protein was loaded onto each lane for SDS-PAGE (3–8% Tris Acetate). The proteins were transferred onto nitrocellulose membrane using the iBLOT® dry blotting system (Life Technologies) according to manufacturer’s protocol. The membranes were blocked and incubated with a primary antibody against LRRK2 (Cell Signaling Technologies), followed by incubation with alkaline phosphatase-conjugated secondary antibody (WesternBreeze® chromogenic Kit, Life Technologies). The blot was developed by using the chromogenic BCIP/NBT substrate (WesternBreeze® chromogenic Kit, Life Technologies). […] Two days post induction, cells were treated for 90 minutes in the presence of 20 µM of compound or DMSO vehicle control. Cells were rapidly lysed in ice cold lysis buffer 50 mM Tris/HCl, pH 7.5, 1 mM EGTA, 1 mM EDTA, […] 1 mM sodium orthovanadate, 10 mM sodium beta-glycerolphosphate, 50 mM NaF, 5 mM sodium pyrophosphate, 0.27 M sucrose, 1 mM benzamidine and 2 mM phenylmethanesulphonylfluoride (PMSF) and one tablet each complete protease inhibitor and PhosSTOP phosphatase inhibitor (Roche) and was supplemented with 1% (v/v) Triton X-100. GFP-LRRK2 was immunoprecipitated with GFP nanotrap beads (ChromoTek). Immunecomplexes were washed twice with lysis buffer supplemented with 300 mM NaCl and once with Buffer A (50 mM Tris/HCl, pH 7.5, 50 mM NaCl, 0.1 mM EGTA and 0.1% (v/v) 2-mercaptoethanol, and 0.27 M sucrose).

The next experiment has as its system LRRK2-GFP. Put plainly: Fluorescence microscopy of LRRK2-GFP localization in U-2 OS cells. It is filed as cell-based, human. The settings on record: 3 µM 90 min, Figure 1A. As for the experimental part:
U-2 OS cells were transduced with BacMam LRRK2-GFP as described above. The cells were then plated on chambered coverslips (LabTek II/Nunc, Rochester, NY) at 50% confluency and incubated for 48 hours. The growth medium was replaced with phenol-red free DMEM® (Life Technologies, Carlsbad, CA) before live imaging. Cells were imaged under the same conditions for each mutant using an inverted microscope (Nikon Eclipse TE2000-S) equipped with a PlanApo 60X objective and a charge-coupled device camera (Diagnostic Instruments SPOT RT 2.3.0) using SPOT Advanced software.

Experiment [2] deals with T1, LRRK2 G2019S. The experiment can be described thus: TR-FRET cellular assay for LRRK2 Ser935 phosphorylation, HEK293T cells, BacMam LRRK2-GFP G2019S. On the set-up: This high-throughput assay utilizes cells expressing full-length human LRRK2 with a C-terminal GFP tag (LRRK2-GFP); host or cells: HEK293T cells transduced with BacMam. The conditions noted are these: +/- SD, three independent experiments, * = partial inhibition, read-out: IC50, TR-FRET cell-based assay for Ser935 phosphorylation of LRRK2. Here is the method:
U-2 OS cells are maintained in growth medium (McCoy’s 5A supplemented with 10% dialyzed FBS (dFBS), 10 mM HEPES, 0.1 mM NEAA, 1 mM Sodium Pyruvate, and 100 U/mL Penicillin/100 µg/mL Streptomycin). HEK293T cells are maintained in DMEM with 10% dFBS, 10 mM HEPES, 0.1 mM NEAA and 100 U/mL Penicillin/100 µg/mL Streptomycin. SH-SY5Y cells are maintained in DMEM/F-12 medium supplemented with 10% dFBS and 100 U/mL Penicillin/100 µg/mL Streptomycin. […] GIBCO® human neural stem cells (hNSCs) were propagated as an adherent culture in StemPro® NSC SFM according to the manufacturer’s recommended protocol (Life Technologies). For BacMam transduction of U-2 OS and HEK293T, cells were harvested, mixed with various amounts of BacMam LRRK2-GFP reagent (v/v) and plated onto 6-well plates. […] Cells were assayed in 384-well format (∼20,000 cells/well) 48 hours post-transduction as above.
Transduced cells in the 384-well assay plate were incubated with indicated inhibitors (5X, 5 µL/well) for 60 to 90 minutes. During this time, 6 X lysis buffer (Life Technologies) was supplemented with 30 nM Tb-labeled anti-LRRK2 pSer935 antibody and both protease and phosphatase inhibitor cocktails (Sigma). The complete 6 X lysis buffer was added to each well (5 µL/well) and the plates were incubated at room temperature in the dark for 2 hours. […] A sigmoidal dose-response equation with varying slope was used to fit the data and generate IC50 values. Z′-factor values were calculated as: Z′-factor = 1 - [(3 × stdevno virus +3 × stdevmaxvirus)/(avgmaxvirus – avgno-virus)]. The IC50 values reported in Table 1 are the averaged numbers from three independent experiments.

T1 sequence (Q5S007 whole entry G2019S): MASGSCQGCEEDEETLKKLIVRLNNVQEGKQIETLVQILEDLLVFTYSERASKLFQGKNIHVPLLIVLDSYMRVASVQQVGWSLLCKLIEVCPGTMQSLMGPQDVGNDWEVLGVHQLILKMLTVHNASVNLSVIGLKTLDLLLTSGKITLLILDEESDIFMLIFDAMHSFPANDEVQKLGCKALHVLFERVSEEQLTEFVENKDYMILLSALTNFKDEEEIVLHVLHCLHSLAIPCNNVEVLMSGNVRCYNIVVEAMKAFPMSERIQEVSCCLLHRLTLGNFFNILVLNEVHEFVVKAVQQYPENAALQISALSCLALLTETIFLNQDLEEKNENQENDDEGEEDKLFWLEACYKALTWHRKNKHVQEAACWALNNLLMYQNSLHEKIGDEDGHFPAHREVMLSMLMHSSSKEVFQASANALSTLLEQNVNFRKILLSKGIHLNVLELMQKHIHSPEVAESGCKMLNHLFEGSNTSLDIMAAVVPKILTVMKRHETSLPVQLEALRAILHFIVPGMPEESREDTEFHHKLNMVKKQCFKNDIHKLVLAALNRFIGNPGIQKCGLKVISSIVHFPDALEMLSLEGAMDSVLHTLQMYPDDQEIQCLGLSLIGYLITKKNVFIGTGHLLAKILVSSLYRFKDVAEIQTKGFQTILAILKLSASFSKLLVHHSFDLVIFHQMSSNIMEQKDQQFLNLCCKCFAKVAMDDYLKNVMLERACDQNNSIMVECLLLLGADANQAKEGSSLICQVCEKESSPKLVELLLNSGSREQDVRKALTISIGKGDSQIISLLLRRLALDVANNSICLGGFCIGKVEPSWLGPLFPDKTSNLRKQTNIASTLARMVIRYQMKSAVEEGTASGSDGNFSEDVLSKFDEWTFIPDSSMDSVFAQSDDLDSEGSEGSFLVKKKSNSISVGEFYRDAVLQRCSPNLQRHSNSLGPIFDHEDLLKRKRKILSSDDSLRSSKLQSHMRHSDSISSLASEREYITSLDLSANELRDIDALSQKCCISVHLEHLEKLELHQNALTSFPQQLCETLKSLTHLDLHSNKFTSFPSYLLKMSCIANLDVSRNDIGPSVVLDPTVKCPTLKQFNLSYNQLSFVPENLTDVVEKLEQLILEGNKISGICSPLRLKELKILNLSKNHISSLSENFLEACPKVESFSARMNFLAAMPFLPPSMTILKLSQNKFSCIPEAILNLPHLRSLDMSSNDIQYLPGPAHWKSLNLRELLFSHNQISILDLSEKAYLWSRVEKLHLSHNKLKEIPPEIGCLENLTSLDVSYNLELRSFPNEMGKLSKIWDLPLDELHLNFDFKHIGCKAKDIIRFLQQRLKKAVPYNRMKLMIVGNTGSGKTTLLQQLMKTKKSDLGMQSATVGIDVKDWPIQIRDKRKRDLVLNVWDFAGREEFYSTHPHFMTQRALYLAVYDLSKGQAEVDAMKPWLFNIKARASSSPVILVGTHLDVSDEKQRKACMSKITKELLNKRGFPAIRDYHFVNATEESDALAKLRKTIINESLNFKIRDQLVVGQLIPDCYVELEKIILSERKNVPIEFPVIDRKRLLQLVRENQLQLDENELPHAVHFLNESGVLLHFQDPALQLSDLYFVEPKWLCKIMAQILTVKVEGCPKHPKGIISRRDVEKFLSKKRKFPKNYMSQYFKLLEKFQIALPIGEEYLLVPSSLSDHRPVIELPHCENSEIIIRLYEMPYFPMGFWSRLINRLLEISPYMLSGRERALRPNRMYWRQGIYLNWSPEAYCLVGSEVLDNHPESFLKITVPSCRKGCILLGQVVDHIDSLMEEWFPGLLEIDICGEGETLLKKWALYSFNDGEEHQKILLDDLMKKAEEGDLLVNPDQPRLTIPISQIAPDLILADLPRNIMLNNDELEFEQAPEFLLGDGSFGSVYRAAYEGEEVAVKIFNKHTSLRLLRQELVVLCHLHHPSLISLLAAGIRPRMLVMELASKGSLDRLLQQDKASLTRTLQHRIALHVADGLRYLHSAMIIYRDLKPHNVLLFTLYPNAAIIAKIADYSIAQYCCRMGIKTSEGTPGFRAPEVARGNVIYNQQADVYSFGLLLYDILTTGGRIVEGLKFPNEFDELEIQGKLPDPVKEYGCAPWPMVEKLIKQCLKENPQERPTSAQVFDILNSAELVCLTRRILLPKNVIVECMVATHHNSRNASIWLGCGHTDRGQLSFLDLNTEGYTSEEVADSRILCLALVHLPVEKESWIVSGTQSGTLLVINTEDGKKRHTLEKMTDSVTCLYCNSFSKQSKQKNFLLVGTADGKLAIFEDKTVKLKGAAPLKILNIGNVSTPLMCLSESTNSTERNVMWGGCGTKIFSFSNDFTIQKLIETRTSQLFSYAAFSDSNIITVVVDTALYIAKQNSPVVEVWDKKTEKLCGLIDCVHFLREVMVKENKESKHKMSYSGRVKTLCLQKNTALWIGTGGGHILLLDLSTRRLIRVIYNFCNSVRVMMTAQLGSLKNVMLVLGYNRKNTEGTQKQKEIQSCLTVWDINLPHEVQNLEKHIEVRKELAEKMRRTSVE
T3 sequence (Q5S007 whole entry A2016T/G2019S): as the sequence (Q5S007 whole entry G2019S) above, with A2016T counted along it
T2 sequence (Q5S007 whole entry G2019S): as the sequence (Q5S007 whole entry G2019S) above

On to `COc1cc(C(=O)N2CCC(N3CCN(C)CC3)CC2)ccc1Nc1ncc2c(n1)N(C)c1ccccc1C(=O)N2C` [LRRK2-IN-1], for which the values for the IC50 at LRRK2 G2019S [1] and at LRRK2 G2019S [2] were 0.01 µM and 0.06 µM, respectively. The “effect on phosphorylation of Ser910, Ser935, Ser955 and Ser973 (IP-Western)” value on GFP-LRRK2 G2019S was “inhibited phosphorylation of Ser910, Ser935, Ser955 and Ser973”. Moreover, at LRRK2 A2016T/G2019S, the “effect of desensitizing mutation A2016T/G2019S on compound-induced dephosphorylation (IP-Western)” value is on record as “rescued phosphorylation”. Further, in the experiment on LRRK2-GFP, the LRRK2-GFP cellular localization result is “relocalization of the wild-type, G2019S and R1441C to more fibrillar-like structures”.
